Test results reported in article PMC6934184, “Selective DNA-PKcs inhibition extends the therapeutic index of localized radiotherapy and chemotherapy” (The Journal of Clinical Investigation, 2019).

Target: T1, PDGFRB (PDGFR beta) (Homo sapiens, UniProt P09619)
T1 construct: purchased Thermo Fisher Scientific (Life Technologies) SelectScreen
Experiment: SelectScreen Z'LYTE
Format: biochemical
How it was run: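 SelectScreen broad panel; activity (Z'LYTE, Adapta) plus binding formats. ATP: Km app for CSF1R Z'LYTE; 10 for CAMK1 Adapta. Readout = % per kinase.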

T1 sequence (P09619 33-1106): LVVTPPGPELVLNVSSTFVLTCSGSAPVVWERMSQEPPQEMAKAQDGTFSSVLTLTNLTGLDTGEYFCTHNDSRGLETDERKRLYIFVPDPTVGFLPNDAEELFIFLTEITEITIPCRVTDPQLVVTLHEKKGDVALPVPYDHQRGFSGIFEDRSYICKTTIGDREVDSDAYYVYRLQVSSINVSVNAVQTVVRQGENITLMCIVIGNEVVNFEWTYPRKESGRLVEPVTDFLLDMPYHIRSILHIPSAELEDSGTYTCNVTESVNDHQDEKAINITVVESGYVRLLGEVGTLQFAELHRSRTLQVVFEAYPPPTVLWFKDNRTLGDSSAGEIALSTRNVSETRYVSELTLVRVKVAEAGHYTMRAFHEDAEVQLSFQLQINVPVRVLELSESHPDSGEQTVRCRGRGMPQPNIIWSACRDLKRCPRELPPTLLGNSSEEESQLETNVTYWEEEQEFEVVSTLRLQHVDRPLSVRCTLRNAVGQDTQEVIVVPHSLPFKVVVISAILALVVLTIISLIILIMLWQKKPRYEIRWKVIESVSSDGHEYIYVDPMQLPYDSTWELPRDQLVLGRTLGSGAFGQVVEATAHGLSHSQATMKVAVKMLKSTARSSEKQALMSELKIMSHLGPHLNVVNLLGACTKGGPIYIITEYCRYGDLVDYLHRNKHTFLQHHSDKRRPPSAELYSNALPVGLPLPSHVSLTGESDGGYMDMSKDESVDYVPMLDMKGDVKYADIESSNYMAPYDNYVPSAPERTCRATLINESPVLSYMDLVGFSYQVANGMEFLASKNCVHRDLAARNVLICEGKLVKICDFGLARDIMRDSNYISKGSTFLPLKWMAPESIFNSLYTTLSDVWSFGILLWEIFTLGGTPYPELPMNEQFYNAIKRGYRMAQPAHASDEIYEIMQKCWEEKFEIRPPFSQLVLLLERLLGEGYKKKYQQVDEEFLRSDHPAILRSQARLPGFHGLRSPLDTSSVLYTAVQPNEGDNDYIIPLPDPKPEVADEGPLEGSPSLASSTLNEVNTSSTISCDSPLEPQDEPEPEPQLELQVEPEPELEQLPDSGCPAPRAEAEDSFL

CN(C(=O)CN1CCOCC1)c1ccc2sc3c(-c4cccc5c(=O)cc(N6CC7CCC(C6)O7)oc45)cccc3c2c1 [NU5455]
inhibition at 1 µM: 11%
